Data: patent publication US8563503B2, “Antibiotic, its nucleotide sequence, methods of construction and uses thereof” (Protein Design Lab. Ltd., priority 2011, dated 2013)

Columns and labels:
[1] = system: ATCC 25923 penicillin-sensitive Staphylococcus aureus; test: Bacteria growth curve (A595 nm cloudiness), penicillin-sensitive Staphylococcus aureus; assay type: cell-based; details: drug 100 ng/ml, 37° C., A595 nm per hour
Procedure: The bacterium was United States Reference Culture ATCC 25923 penicillin-sensitive Staphylococcus aureus. 2 microliter of bacteria solution (10^5 CFU/ml) was added into 10 ml culture solution containing 1% tryptone, 1% NaCl, 0.5% yeast extract, 0.5% glucose and 0.1% K2HPO4, totally prepared six groups. The first group as control was added 0.3 M NaCl+50 mM boric acid buffer fluid (i.e. blank preservative fluid for novel antibiotic, wild-type colicin Ia and protein produced by BL-21 engineering bacteria without plasmid, by the same volumes of antibiosis polypeptide liquid in the experimental group, the second group was added penicillin G sodium by 100 ng/ml, the third group was added wild-type colicin Ia by 100 ng/ml, the fourth group was added protein produced by BL-21 engineering bacteria without plasmid by 100 ng/ml, the fifth group was added recombinant protein that C-terminus of colicin Ia is fused other eight peptides by 100 ng/ml, and the sixth group was added the novel antibiotic PMC-SA1 by 100 ng/ml.
The solutions of the six groups were respectively put into 100 ml conical flask, 200 rpm, grew at 37° C. 100 μl was sampled per hour, and added onto 96 hole ELISA Plate and measured bacterium growth cloudiness by spectrophotometer (A595 nm) color comparison. The bacteria-growth curve was drawn up to compare the bacteriostasis efficacy of novel antibiosis.

Baumanii = test: MIC by Agar Doubling Dilution Method, clinical isolates; assay type: cell-based
Procedure: (§1) (3) Culture Solution • MH Broth Culture Solution: 25 g was added into […] distilled water, heat to dissolve, subpackaged, autoclaved at 116° C. for 20 minutes, and MH Solid Culture Medium, 36 g was added into 1000 ml distilled water, autoclaved at 116° C. for 20 minutes, used for drug sensitive test of Gram-positive and negative aerobic bacteria. • Blood culture solution for Enterococcus faecalis, which was prepared by adding defibration rabbit blood into the MH culture solution by 5-10% and cultured at 37° C. in 5% CO2 for 24 hours. 2. Experimental Methods (1) The Measurement of Minimum Inhibitory Concentration (MIC) • The Minimum Inhibitory Concentration (MIC) of PMC-SA1 was measured by Agar Doubling Dilution Method. The bacterium was inoculated on the surface of agar plate containing different concentration of drugs by multipoint inoculate instrument (Deneley A400). The bacterial content per point was 10^5 CFU/ml. After incubated at 37° C. for 18-24 hours, the result can be observed. The least concentration of drugs in plate culture solution without bacterium growing was Minimum Inhibitory Concentration (MIC) of the drug to the said bacteria. 3. Results

E. coli = test: as above; assay type: cell-based; details: Escherichia coli, E. coli clinical strains
Procedure: as §1

[2] = system: Staphylococcus aureus (MRSA); test: as above; assay type: cell-based; details: Staphylococcus aureus, MRSA
Procedure: as §1

[3] = system: Staphylococcus aureus (MSSA); test: as above; assay type: cell-based; details: Staphylococcus aureus, MSSA
Procedure: as §1

[4] = system: Staphylococcus epidermidis (MRSE); test: as above; assay type: cell-based; details: Staphylococcus epidermidis, MRSE
Procedure: as §1

[5] = system: Staphylococcus epidermidis (MSSE strain); test: as above; assay type: cell-based
Procedure: as §1

Enterococcus = test: as above; assay type: cell-based, Enterococcus faecalis; details: Enterococcus
Procedure: as §1

Enterococcus ATCC 700802 [6] = test: MIC against the infecting strain (Table 2); assay type: cell-based, Enterococcus faecalis; details: ATCC700802
Procedure: as §1

E. coli 02-1-65 [7] = test: MIC against the infecting strain (Table 2); assay type: cell-based; details: Escherichia coli, 02165
Procedure: as §1

[8] = system: Staphylococcus aureus ATCC 29213; test: MIC against the infecting strain (Table 2); assay type: cell-based; details: ATCC29213
Procedure: as §1

[9] = system: Staphylococcus aureus MRSA BAA-42; test: MIC against the infecting strain (Table 2); assay type: cell-based; details: Staphylococcus aureus
Procedure: as §1

E. coli 02-1-65 [10] = test: Protection test in vivo (intravenous injection) of infected mice; design: species or system Kungming mice; details: Escherichia coli, 02165
Procedure: (§2) The drugs used in this embodiment were same with that used in embodiment 4.
(§3) The above drugs were dissolved and diluted by sterilized water, and the injection concentrations of each drug were 10 mg/kg, 5 mg/kg and 2.5 mg/kg.
(§4) After given intraperitoneal injection of fatal dose of above-mentioned bacteria, the mice of each drug experimental group respectively were given once intravenous injection of the drug by 10 mg, 5 mg, 2.5 mg/kg. The results were observed per 24 hours for 7-14 days. The positive result is mice's death.

Enterococcus ATCC 700802 [11] = test: as above; design: species or system Kungming mice; details: Enterococcus, ATCC700802
Procedure: as §2, §3, §4

[12] = system: Staphylococcus aureus ATCC 29213; test: as above; design: species or system Kungming mice; details: Staphylococcus aureus, ATCC29213
Procedure: as §2, §3, §4

[13] = system: Staphylococcus aureus MRSA BAA-42; test: as above; design: species or system Kungming mice; details: Staphylococcus aureus
Procedure: as §2, §3, §4

CC1(C)S[C@@H]2[C@H](NC(=O)Cc3ccccc3)C(=O)N2[C@H]1C(=O)O [Penicillin, Benzylpenicillin Sodium]
growth of penicillin-sensitive Staphylococcus aureus (bacteria-growth curve) [1]: restrained
MIC50 (Baumanii): > 128 mg/L
MIC90 (Baumanii): > 128 mg/L
MIC (Baumanii; read-out: Scope of MIC): > 128 mg/L
MIC50 (E. coli; read-out: MIC50): > 128 mg/L
MIC90 (E. coli; read-out: MIC90): > 128 mg/L
MIC (E. coli; read-out: Scope of MIC): > 128 mg/L
MIC50 [2]: 128 mg/L
MIC90 [2]: > 128 mg/L
MIC ([2]; read-out: Scope of MIC): 1 to 128 mg/L
MIC50 [3]: 8 mg/L
MIC90 [3]: 64 mg/L
MIC50 [4]: > 128 mg/L
MIC90 [4]: > 128 mg/L
Scope of MIC ([5]; MSSE clinical strains): 0.125 to 128 mg/L
MIC50 ([5]; Staphylococcus epidermidis): 4 mg/L
MIC90 ([5]; Staphylococcus epidermidis): 32 mg/L
MIC50 (Enterococcus): 32 mg/L
MIC90 (Enterococcus): 64 mg/L
MIC (Enterococcus ATCC 700802 [6]): 4 mg/L
MIC (E. coli 02-1-65 [7]): > 128 mg/L
MIC [8]: 16 mg/L
MIC [9]: 8 mg/L
ED50 (E. coli 02-1-65 [10]): > 34.5 mg/kg
ED50 (Enterococcus ATCC 700802 [11]): 4.16 mg/kg
ED50 [12]: 10.8 mg/kg
ED50 [13]: 14.7 mg/kg
